# Experimental data reported in patent publication US8796429B2, “Bioactive lipid derivatives, and methods of making and using same” (Lpath, Inc., priority 2006, dated 2014).
# Entries after “also recorded” stand apart in the source; their conditions may differ.
# Columns and labels:
# SKOV3 cells = experiment: Taxol-induced apoptosis (caspase activity); format: cell-based, human
# Method: The ability of LPA to protect ovarian tumor cells against apoptosis when exposed to clinically-relevant levels of the chemotherapeutic agent, paclitaxel (Taxol) was investigated. SKVO3 cells were treated with 1% FBS (S), Taxol ([…]), +/− anti-LPA mAbs for 24 h. […] Apoptosis was assayed by measurement of the caspase activity as recommended by the manufacturer (Promega). As anticipated, LPA protected most of the cancer cell lines tested from taxol-induced cell death. […] Moreover, the anti-LPA antibody was able to remove the protection provided by serum. Serum is estimated to contain about […] LPA. […] Taxol-induced caspase activation was enhanced by the addition of all 3 of the anti-LPA mAbs to the culture medium.
# [1] = Direct ELISA, chimeric antibody and mutants binding to S1P; settings: for Binding: antibody 0.1 ug/ml, optical density at 450 nm
# Method: Microtiter ELISA plates (Costar) were coated overnight with S1P diluted in 1 M Carbonate Buffer (pH 9.5) at 37° C. for 1 hr. Plates were washed with PBS (137 mM NaCl, 2.68 mM KCl, 10.1 mM Na2HPO4, 1.76 mM KH2PO4; pH 7.4) and blocked with PBS/BSA/Tween-20 for 1 hr at room temp or overnight at 4° C. For the primary incubation (1 hr at room temp.), a standard curve using the anti-S1P mAb and the samples to be tested for binding was built using the following set of dilutions: 0.4 μg/mL, 0.2 μg/mL, 0.1 μg/mL, 0.05 μg/mL, 0.0125 μg/mL, and 0 μg/mL, and 100 μl added to each well. Plates were washed and incubated with 100 μl per well of HRP conjugated goat anti-mouse (1:20,000 dilution) (Jackson Immuno Research) or HRP conjugated goat anti-human (H+L) diluted 1:50,000 (Jackson Immuno Research) for 1 hr at room temperature. After washing, the enzymatic reaction was detected with tetramethylbenzidine (Sigma) and stopped by adding 1 M H2SO4. The optical density (OD) was measured at 450 nm using a Thermo Multiskan EX. Raw data were transferred to GraphPad software for analysis.
# The chromogenic reaction was measured and reported as Optical density (OD). The concentration of the panel of antibodies was 0.1 ug/ml. No interaction of the second antibody with S1P-coated matrix alone was detected.
# Caki-1 cells = experiment: LPA-induced IL-8 release, ELISA of supernatants; format: cell-based, human; settings: 18:1 LPA 0.2 mM, cells without mAb, 24 h
# Method: Three anti-LPA mAbs (B3, B7 and B58) were tested for their abilities to reduce in vitro IL-8 production compared to a non-specific antibody (NS). Caki-1 cells were seeded in 96 well plates and grown to confluency. After overnight serum starvation, cells were treated with 18:1 LPA (0.2 mM) with or without anti-LPA mAb B3, B7, B58 or NS (Non-Specific). After 24 h, cultured supernatants of renal cancer cells (Caki-1), treated with or without LPA and in presence of increasing concentrations of the anti-LPA mAbs B3, B7 and B58, were collected and analyzed for IL-8 levels using a commercially available ELISA kit (Human Quantikine Kit, R&D Systems, Minneapolis, Minn.). […] Similar results were obtained with the other well-known pro-angiogenic factor, VEGF. The inhibition of IL-8 release by the anti-LPA mAbs was also observed in other cancerous cell lines such as the pancreatic cell line Panc-1.
# human cancer cell lines = experiment: LPA-induced cancer cell proliferation; format: cell-based; settings: LPA 0.01 mM to 10 mM; SKOV3, OVCAR3, Panc-1, Caki-1, DU-145, A549, HCT-116; also rat RBL-2H3
# Method: LPA is a potent growth factor supporting cell survival and proliferation by stimulation of Gi, Gq and G12/13 via GPCR-receptors and activation of downstream signaling events. Cell lines were tested for their proliferative response to LPA ([…]). Cell proliferation was assayed by using the cell proliferation assay kit from Chemicon (Temecula Calif.) (Panc-1) and the Cell-Blue titer from Pierce (Caki-1). Each data point is the mean of three independent experiments. […] Even though tumor-derived cells normally have high basal levels of proliferation, LPA appears to further augment proliferation in most tumor cell lines. Anti-LPA mAbs (B7 and B58) were assessed for the ability to inhibit LPA-induced proliferation in selected human cancer cell lines.
# [2] = Competitive ELISA, specificity of anti-S1P mAb; format: binding
# Method: (§1) Screening of serum and cell supernatant for S1P-specific antibodies was by direct ELISA using the thiolated S1P analog described in Example 1 (i.e., compound 10) as the antigen. A standard ELISA was performed, as described below, except that 50 ul of sample (serum or cell supernatant) was diluted with an equal volume of PBS/0.1% Tween-20 (PBST) during the primary incubation. ELISAs were performed in 96-well high binding ELISA plates (Costar) coated with 0.1 μg of chemically-synthesized compound 10 conjugated to BSA in binding buffer (33.6 mM Na2CO3, 100 mM NaHCO3; pH 9.5). The thiolated-S1P-BSA was incubated at 37° C. for 1 hr. at 4° C. overnight in the ELISA plate wells. The plates were then washed four times with PBS (137 mM NaCl, 2.68 mM KCl, 10.14 mM Na2HPO4, 1.76 mM KH2PO4; pH 7.4) and blocked with PBST for 1 hr. at room temperature. For the primary incubation step, 75 uL of the sample (containing the S1P to be measured), was incubated with 25 uL of 0.1 ug/mL anti-S1P mAb diluted in PBST and added to a well of the ELISA plate. Each sample was performed in triplicate wells. Following a 1 hr. incubation at room temperature, the ELISA plates were washed four times with PBS and incubated with 100 ul per well of 0.1 ug/mL HRP goat anti-mouse secondary (Jackson Immunoresearch) for 1 hr. at room temperature. Plates were then washed four times with PBS and exposed to tetramethylbenzidine (Sigma) for 1-10 minutes. The detection reaction was stopped by the addition of an equal volume of 1M H2SO4. Optical density of the samples was determined by measurement at 450 nm using an EL-X-800 ELISA plate reader (Bio-Tech).
# For cross reactivity, a competitive ELISA was performed as described above, except for the following alterations (FIG. 4). The primary incubation consisted of the competitor (S1P, SPH, LPA, etc.) and a biotin-conjugated anti-S1P mAb. Biotinylation of the purified monoclonal antibody was performed using the EZ-Link Sulfo-NHS-Biotinylation kit (Pierce). Biotin incorporation was determined as per kit protocol and ranged from 7 to 11 biotin molecules per antibody. […]
# [3] = ELISA with exchanged crosslinker or protein carrier in the laydown material; format: binding
# Text: For example, the normal crosslinker SMCC was exchanged for IOA in conjugating the thiolated-S1P to BSA as the laydown material in the ELISA. […] Similarly, KLH was exchanged for BSA as the protein that was complexed with thiolated-S1P as the laydown material.
# [4] = Competitive ELISA, specificity of anti-S1P mAb (free lipid competes with plate-bound S1P); format: binding; settings: competitor free S1P
# Method: as §1, with “Each sample was performed in triplicate wells. Following a 1 hr. incubation at room temperature, the ELISA plates were washed four times with PBS and incubated with 100 ul per well of 0.1 ug/mL HRP goat anti-mouse secondary (Jackson Immunoresearch) for 1 hr. at room temperature. Plates were then washed four times with PBS and exposed to tetramethylbenzidine (Sigma) for 1-10 minutes. The detection reaction was stopped by the addition of an equal volume of 1M H2SO4.” left out
# For cross reactivity, a competitive ELISA was performed as described above, except for the following alterations (FIG. 4). […] Biotin incorporation was determined as per kit protocol and ranged from 7 to 11 biotin molecules per antibody. […]
molecule,measurement,setting,value
"CC(=O)O[C@H]1C(=O)[C@@]2(C)[C@H]([C@H](OC(=O)c3ccccc3)[C@]3(O)C[C@H](OC(=O)[C@H](O)[C@@H](NC(=O)c4ccccc4)c4ccccc4)C(C)=C1C3(C)C)[C@]1(OC(C)=O)CO[C@@H]1C[C@@H]2O [Taxol, paclitaxel]","caspase-3,7 activation",SKOV3 cells; SKOV3 cells,"induced caspase-3,7 activation"
CysPhe,binding to S1P compared with the chimeric antibody,"[1]; ELISA, substitution of Cys 50 in heavy chain CDR2",did not alter the binding
same,Binding,[1],2 OD
MetLeu,Binding,[1],1.6 OD
lysophosphatidic acid [LPA],increase of IL-8 expression,Caki-1 cells,100%
same,protection from Taxol-induced apoptosis,"SKOV3 cells; Taxol 0.5 mM, 24 h",protected SKVO3 cells from Taxol-induced apoptosis
same,proliferative response to LPA,human cancer cell lines,increased proliferation
"anti-S1P mAb: murine IgG1 kappa monoclonal antibody against S1P from hybridoma clone 306D326.26 (ATCC SD-5362) (antibody, listed as Mus musculus, V domains shown) VH: QAHLQQSDAELVKPGASVKISCKVSGFIFIDHTIHWMKQRPEQGLEWIGCISPRHDITKYNEMFRGKATLTADKSSTTAYIQVNSLTFEDSAVYFCARGGFYGSTIWFDFWGQGTTLTVS VL: ETTVTQSPASLSMAIGEKVTIRCITTTDIDDDMNWFQQKPGEPPNLLISEGNILRPGVPSRFSSSGYGTDFLFTIENMLSEDVADYYCLQSDNLPFTFGSGTKLEIK",discrimination of thiolated-S1P analog from natural S1P,[2]; competition experiment,unable to distinguish
same,competition for mAb binding to S1P on the plate,[2]; competitor DH-S1P,can compete for binding
same,competition for mAb binding to S1P on the plate,[2]; competitor SPC (phosphate linked with choline),somewhat reduced; also recorded: only slightly competes for binding
same,"binding characteristics, laydown with KLH instead of BSA",[3]; KLH complexed with thiolated-S1P,no significant difference
same,"binding characteristics, laydown with IOA instead of SMCC","[3]; thiolated-S1P conjugated to BSA, compared with BSA-SMCC-thiolated-S1P",nearly identical
same,competition for mAb binding to S1P on the plate,[4],can compete for binding
